Experimental data from patent US11168102B1, “Bicyclic heteroaryl compounds and uses thereof” (Revolution Medicines, Inc., priority 2019, dated 2021).

Key:
[1] = test system: cellular pERK in PC-9 cells (EGFR Ex19Del); experiment: Potency assay: pERK (AlphaLISA SureFire Ultra p-ERK1/2) in PC-9 cells; type: cell-based; details: Homo sapiens, PC-9, 1 h, PC-9 cells (EGFR Ex19Del), 1 hour incubation, AlphaLISA SureFire Ultra p-ERK1/2; read-out: SOS1 pERK IC50
[2] = molecular target: SOS1 nucleotide exchange of wild-type KRAS (Homo sapiens (Human), UniProt Q07889); experiment: Mode of action assay: inhibition of SOS1 nucleotide exchange activity (TR-FRET); type: biochemical; details: SOS1 catalytic domain (564-1049), avi-tagged KRAS (1-169), EDA-GTP-DY-647P1; three replicates
SOS1 nucleotide exchange of wild-type KRAS, sequence (Q07889 564-1049): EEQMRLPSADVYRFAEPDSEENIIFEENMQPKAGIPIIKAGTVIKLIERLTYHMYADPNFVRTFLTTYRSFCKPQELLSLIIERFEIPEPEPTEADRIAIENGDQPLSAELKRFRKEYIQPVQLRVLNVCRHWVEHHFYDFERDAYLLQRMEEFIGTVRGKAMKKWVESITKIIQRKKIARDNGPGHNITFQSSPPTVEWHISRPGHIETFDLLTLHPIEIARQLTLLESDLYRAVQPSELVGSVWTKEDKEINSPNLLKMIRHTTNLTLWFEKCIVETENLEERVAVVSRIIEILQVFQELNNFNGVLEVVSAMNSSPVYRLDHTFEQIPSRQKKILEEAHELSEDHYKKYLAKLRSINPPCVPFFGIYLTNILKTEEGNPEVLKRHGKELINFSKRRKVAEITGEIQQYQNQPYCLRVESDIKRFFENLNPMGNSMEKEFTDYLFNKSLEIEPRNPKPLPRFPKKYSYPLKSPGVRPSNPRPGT

[3] = molecular target: SOS1 catalytic domain (residues 564-1049) (Homo sapiens (Human), UniProt Q07889); experiment: Potency assay: binding affinity to SOS1 by Surface Plasmon Resonance (SPR); details: avi-tagged SOS1 catalytic domain immobilized on sensor chip; 1:1 equilibrium binding fit
SOS1 catalytic domain (residues 564-1049), sequence (Q07889 564-1049): as above

For `C[C@@H](Nc1ncnc2c1cc(C(=O)N1CCN(C)CC1)c(=O)n2C)c1cccc(C(F)F)c1F` [Example 26-7], the IC50 [1] was 186 nM, the IC50 [2] was 50.8 nM and the Kd [3] was 77.5 nM.
In the case of `C[C@@H](Nc1ncnc2c1cc(C(=O)N1CCCOCC1)c(=O)n2C)c1cccc(C(F)F)c1F` [Example 26-9], the IC50 [1] is reported as 479 nM, the IC50 [2] is reported as 122 nM and the Kd [3] is reported as 178 nM.
`C[C@@H](Nc1ncnc2c1cc(C(=O)N1C3CC1CN(C)C3)c(=O)n2C)c1cccc(C(F)F)c1F` [Example 26-11] gave an IC50 [1] of 251 nM, an IC50 [2] of 46.1 nM and a Kd [3] of 97.8 nM.
`C[C@@H](Nc1ncnc2c1cc(C(=O)N1C3CCC1COC3)c(=O)n2C)c1cccc(C(F)F)c1F` [Example 26-12] gave an IC50 [1] of 861 nM, an IC50 [2] of 107 nM and a Kd [3] of 158 nM.
In the case of `C[C@@H](Nc1ncnc2c1cc(C(=O)N(C)c1nccs1)c(=O)n2C)c1cccc(C(F)F)c1F` [Example 26-20], the IC50 [1] is reported as 1750 nM, the IC50 [2] is reported as 331 nM and the Kd [3] is reported as 1460 nM.
`C[C@@H]1CN(C(=O)c2cc3c(N[C@H](C)c4cccc(C(F)F)c4F)ncnc3n(C)c2=O)C[C@@H](C)O1` [Example 26-21] gave an IC50 [1] of 520 nM, an IC50 [2] of 24.9 nM and a Kd [3] of 114 nM.
With `C[C@@H]1CN(C(=O)c2cc3c(N[C@H](C)c4cccc(C(F)F)c4F)ncnc3n(C)c2=O)C[C@H](C)O1` [Example 26-22] the IC50 [1] was 2610 nM, the IC50 [2] was 113 nM and the Kd [3] was 474 nM.
Work on `COC[C@H]1CCCN1C(=O)c1cc2c(N[C@H](C)c3cccc(C(F)F)c3F)ncnc2n(C)c1=O` [Example 26-24] yielded an IC50 [1] of 794 nM, an IC50 [2] of 54.1 nM and a Kd [3] of 160 nM.
Compound `C[C@@H]1COC[C@H](C)N1C(=O)c1cc2c(N[C@H](C)c3cccc(C(F)F)c3F)ncnc2n(C)c1=O` [Example 26-25] has an IC50 [1] of 605 nM, an IC50 [2] of 106 nM and a Kd [3] of 350 nM.
`C[C@@H](Nc1ncnc2c1cc(C(=O)N1CCc3ncccc31)c(=O)n2C)c1cccc(C(F)F)c1F` [Example 26-26] gave an IC50 [1] of 228 nM, an IC50 [2] of 72.2 nM and a Kd [3] of 269 nM.
Compound `C[C@@H](Nc1ncnc2c1cc(C(=O)N1CCc3ccncc31)c(=O)n2C)c1cccc(C(F)F)c1F` [Example 26-29] has an IC50 [1] of 1450 nM, an IC50 [2] of 97.8 nM and a Kd [3] of 136 nM.
`C[C@@H](Nc1ncnc2c1cc(C(=O)N1CCn3cncc3C1)c(=O)n2C)c1cccc(C(F)F)c1F` [Example 26-30] was tested, and the IC50 [1] was 656 nM, the IC50 [2] was 86.1 nM and the Kd [3] was 260 nM.
`C[C@@H](Nc1ncnc2c1cc(C(=O)N1CCn3ccnc3C1)c(=O)n2C)c1cccc(C(F)F)c1F` [Example 26-31] showed an IC50 [1] of 2820 nM, an IC50 [2] of 230 nM and a Kd [3] of 322 nM.
Compound `C[C@@H](Nc1ncnc2c1cc(C(=O)N1CCS(=O)(=O)CC1)c(=O)n2C)c1cccc(C(F)F)c1F` [Example 26-38] has an IC50 [1] of 392 nM, an IC50 [2] of 156 nM and a Kd [3] of 235 nM.
`C[C@@H](Nc1ncnc2c1cc(C(=O)N1CC(O)(C(F)(F)F)C1)c(=O)n2C)c1cccc(C(F)F)c1F` [Example 26-41] showed an IC50 [1] of 1400 nM, an IC50 [2] of 170 nM and a Kd [3] of 420 nM.
`C[C@@H](Nc1ncnc2c1cc(C(=O)N1CCN(C3COC3)CC1)c(=O)n2C)c1cccc(C(F)F)c1F` [Example 26-43] showed an IC50 [1] of 181 nM, an IC50 [2] of 37 nM and a Kd [3] of 53.6 nM.
`C[C@@H](Nc1ncnc2c1cc(C(=O)N1CCN(C)c3ncccc31)c(=O)n2C)c1cccc(C(F)F)c1F` [Example 26-49] showed an IC50 [1] of 959 nM, an IC50 [2] of 176 nM and a Kd [3] of 311 nM.
`C[C@@H](Nc1ncnc2c1cc(C1(O)CCS(=O)(=O)C1)c(=O)n2C)c1cccc(C(F)F)c1F` (stereo partly drawn) [Example 28-3] was tested, and the IC50 [1] was 111 nM, the IC50 [2] was 99.8 nM and the Kd [3] was 128 nM.
`C[C@@H](Nc1ncnc2c1cc(C1(O)CCC3(CC1)CS(=O)(=O)C3)c(=O)n2C)c1cccc(C(F)F)c1F` [Example 28-6] was tested, and the IC50 [1] was 123 nM, the IC50 [2] was 14 nM and the Kd [3] was 21 nM.
Work on `C[C@@H](Nc1ncnc2c1cc(C1(F)CCN(C)CC1)c(=O)n2C)c1cccc(C(F)F)c1F` [Example 29-3] yielded an IC50 [1] of 120 nM, an IC50 [2] of 42.4 nM and a Kd [3] of 41.6 nM.
Compound `Cc1nc(N[C@H](C)c2cccc(C(F)F)c2F)c2cc(C3(F)CCN(C)CC3)c(=O)n(C)c2n1` [Example 29-4] has an IC50 [1] of 144 nM, an IC50 [2] of 15.9 nM and a Kd [3] of 52.2 nM.
`CC(=O)N1CCC(F)(c2cc3c(N[C@H](C)c4cccc(C(F)F)c4F)ncnc3n(C)c2=O)CC1` [Example 29-5] gave an IC50 [1] of 37.3 nM, an IC50 [2] of 14.8 nM and a Kd [3] of 37.4 nM.
With `C[C@@H](Nc1ncnc2c1cc(C1CCS(=O)(=O)C1)c(=O)n2C)c1cccc(C(F)F)c1F` (stereo partly drawn) [Example 33-1] the IC50 [1] was 62.1 nM, the IC50 [2] was 42.7 nM and the Kd [3] was 486 nM.
